The target in assay [1] is T1, Tyrosine-protein kinase Mer (Homo sapiens) (UniProt Q12866).
T1 sequence (whole entry): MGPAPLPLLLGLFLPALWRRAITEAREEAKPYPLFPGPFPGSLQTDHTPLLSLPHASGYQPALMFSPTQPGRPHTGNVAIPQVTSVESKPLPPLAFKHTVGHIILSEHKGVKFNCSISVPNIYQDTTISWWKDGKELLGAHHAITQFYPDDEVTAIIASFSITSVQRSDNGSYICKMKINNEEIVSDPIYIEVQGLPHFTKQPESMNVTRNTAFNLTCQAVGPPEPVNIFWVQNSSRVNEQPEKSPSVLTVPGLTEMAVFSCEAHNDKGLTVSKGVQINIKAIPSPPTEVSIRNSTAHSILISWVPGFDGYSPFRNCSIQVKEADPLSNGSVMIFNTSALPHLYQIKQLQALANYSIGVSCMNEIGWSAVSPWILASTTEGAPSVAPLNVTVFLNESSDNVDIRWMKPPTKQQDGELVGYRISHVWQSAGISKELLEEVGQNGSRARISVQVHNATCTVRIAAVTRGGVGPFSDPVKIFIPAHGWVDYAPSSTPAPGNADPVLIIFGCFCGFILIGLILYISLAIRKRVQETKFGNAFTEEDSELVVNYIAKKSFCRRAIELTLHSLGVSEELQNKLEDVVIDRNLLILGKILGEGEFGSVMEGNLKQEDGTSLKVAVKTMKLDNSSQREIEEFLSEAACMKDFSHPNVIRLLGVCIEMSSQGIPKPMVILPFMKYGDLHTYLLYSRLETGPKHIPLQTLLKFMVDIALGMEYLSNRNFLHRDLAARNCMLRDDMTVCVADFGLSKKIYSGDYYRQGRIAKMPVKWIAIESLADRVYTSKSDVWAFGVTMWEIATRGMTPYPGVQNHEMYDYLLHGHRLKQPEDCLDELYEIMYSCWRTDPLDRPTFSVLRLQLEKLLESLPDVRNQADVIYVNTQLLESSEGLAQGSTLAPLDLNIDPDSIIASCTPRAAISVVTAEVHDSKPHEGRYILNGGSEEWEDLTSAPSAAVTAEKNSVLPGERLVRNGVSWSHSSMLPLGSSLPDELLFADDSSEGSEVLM
In words: Inhibition of human c-MER at 18.6 nM by HotSpot assay relative to control.

For assay [2], the target named is T2, Testis-specific serine/threonine-protein kinase 2 (Homo sapiens) (UniProt Q96PF2).
T2 sequence (whole entry): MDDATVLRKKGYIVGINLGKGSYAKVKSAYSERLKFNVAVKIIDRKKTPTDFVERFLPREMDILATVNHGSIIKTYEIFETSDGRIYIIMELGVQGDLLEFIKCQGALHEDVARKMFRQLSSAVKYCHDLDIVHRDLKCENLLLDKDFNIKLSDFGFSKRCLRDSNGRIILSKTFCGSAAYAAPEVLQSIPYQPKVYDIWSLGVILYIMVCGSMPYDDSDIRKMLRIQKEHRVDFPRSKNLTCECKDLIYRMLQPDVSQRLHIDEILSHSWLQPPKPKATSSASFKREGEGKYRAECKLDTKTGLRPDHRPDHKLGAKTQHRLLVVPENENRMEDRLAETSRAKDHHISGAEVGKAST
In words: Inhibition of human TSSK2 at 1.82 nM by HotSpot assay relative to control.

For assay [3], the target named is CDK9/cyclin T1 (Homo sapiens) (UniProt O60563+P50750). The assay is described as follows: Inhibition of human CDK9/cyclin T1 at 1.82 nM by HotSpot assay relative to control. It is filed as protein-complex assay.
Assay [4] has as its target T3, Muscle, skeletal receptor tyrosine-protein kinase (Homo sapiens) (UniProt O15146).
T3 sequence (whole entry): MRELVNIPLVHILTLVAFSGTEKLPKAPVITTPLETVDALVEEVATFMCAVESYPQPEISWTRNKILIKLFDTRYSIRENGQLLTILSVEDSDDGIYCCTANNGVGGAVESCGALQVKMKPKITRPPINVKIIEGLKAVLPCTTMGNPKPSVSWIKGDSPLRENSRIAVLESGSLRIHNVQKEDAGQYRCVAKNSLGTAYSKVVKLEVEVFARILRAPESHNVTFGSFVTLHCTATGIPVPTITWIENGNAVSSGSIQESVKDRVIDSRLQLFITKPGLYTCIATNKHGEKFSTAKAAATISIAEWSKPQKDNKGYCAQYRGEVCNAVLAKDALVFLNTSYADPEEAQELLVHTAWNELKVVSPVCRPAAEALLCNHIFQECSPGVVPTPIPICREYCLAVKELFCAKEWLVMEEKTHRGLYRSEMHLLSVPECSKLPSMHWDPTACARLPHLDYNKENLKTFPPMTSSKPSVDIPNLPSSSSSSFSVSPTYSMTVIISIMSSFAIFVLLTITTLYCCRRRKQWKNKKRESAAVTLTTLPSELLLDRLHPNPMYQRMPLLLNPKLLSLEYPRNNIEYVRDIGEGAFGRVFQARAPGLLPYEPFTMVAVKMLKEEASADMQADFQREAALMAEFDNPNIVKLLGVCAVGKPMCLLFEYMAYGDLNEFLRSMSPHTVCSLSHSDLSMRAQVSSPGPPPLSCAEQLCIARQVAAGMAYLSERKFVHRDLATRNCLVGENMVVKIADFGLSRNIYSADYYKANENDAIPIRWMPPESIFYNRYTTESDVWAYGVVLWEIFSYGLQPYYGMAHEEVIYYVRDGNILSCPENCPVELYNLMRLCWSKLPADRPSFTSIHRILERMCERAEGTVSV
In words: Inhibition of human MUSK at 1.82 nM by HotSpot assay relative to control.

Assay [5] concerns the target Death-associated protein kinase 1 (Homo sapiens) (UniProt P53355). In words: Inhibition of human DAPK1 at 1.82 nM by HotSpot assay relative to control.

Death-associated protein kinase 1 (Homo sapiens), sequence (P53355 whole entry, looked up): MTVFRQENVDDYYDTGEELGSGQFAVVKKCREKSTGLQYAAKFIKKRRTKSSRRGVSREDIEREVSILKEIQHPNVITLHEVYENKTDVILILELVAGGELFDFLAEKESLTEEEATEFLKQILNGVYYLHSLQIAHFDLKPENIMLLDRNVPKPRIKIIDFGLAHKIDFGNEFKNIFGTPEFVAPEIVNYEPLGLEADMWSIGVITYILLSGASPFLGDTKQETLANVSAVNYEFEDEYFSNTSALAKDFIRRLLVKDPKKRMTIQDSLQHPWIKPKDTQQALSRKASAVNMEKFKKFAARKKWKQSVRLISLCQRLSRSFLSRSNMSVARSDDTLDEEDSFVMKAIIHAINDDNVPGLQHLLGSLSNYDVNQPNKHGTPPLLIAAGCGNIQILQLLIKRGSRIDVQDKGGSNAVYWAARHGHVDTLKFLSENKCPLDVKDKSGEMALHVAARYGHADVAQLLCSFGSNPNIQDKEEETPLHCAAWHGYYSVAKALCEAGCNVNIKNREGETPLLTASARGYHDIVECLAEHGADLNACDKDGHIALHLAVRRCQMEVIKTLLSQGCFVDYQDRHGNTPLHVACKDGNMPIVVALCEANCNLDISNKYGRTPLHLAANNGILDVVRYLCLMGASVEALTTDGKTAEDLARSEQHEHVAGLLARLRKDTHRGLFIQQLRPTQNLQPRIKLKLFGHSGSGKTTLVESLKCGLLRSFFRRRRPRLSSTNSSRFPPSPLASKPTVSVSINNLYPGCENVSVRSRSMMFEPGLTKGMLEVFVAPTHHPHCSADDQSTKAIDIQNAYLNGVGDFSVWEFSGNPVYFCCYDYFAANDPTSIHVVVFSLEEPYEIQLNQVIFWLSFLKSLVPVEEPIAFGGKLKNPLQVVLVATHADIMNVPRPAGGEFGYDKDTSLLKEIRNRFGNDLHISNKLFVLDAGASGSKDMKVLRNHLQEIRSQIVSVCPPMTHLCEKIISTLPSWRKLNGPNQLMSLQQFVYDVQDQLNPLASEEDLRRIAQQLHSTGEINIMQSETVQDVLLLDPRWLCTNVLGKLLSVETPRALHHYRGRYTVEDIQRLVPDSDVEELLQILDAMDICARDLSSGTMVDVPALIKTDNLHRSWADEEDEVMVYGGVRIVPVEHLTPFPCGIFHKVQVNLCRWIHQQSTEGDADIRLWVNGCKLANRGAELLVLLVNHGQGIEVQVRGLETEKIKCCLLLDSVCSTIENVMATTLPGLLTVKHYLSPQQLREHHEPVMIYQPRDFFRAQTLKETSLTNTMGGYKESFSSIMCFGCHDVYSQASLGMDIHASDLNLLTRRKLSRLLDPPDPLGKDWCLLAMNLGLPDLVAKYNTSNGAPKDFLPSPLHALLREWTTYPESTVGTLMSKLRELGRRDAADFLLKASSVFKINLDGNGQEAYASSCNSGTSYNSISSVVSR

What is called inhibition is the drop in the measured response relative to a control, in per cent. Turning to `C[C@]1(O)C[C@@H](c2nc(-c3ccc4ccc(-c5ccccc5)nc4c3)c3c(N)nccn32)C1`, in assay [1], the inhibition is -0.54%.

For the compound `C[C@@]1(C(=O)Nc2ccc(F)nc2)CCCN1c1nc(Nc2cc(C3CC3)n[nH]2)c2cccn2n1`, the inhibition in assay [2] is -1.46%; in assay [3], 1.5%; in assay [4] it was -0.39%; in assay [5], 3.56%.
